Measurements as given in PMC5438648, “Identifying the structure-activity relationship of leelamine necessary for inhibiting intracellular cholesterol transport” (Oncotarget, 2017).
Like-named read-outs stand apart in the source and are kept apart here.

Tests used:
[1] = system: UACC 903 melanoma cell line; experiment: Western blot of signaling pathways (PI3K/AKT, STAT3, MAPK; pERK1/2); assay type: cell-based, human; conditions: active 3-5 μmol/L, inactive 30-50 μmol/L, 24 hours
From the text: (§1) Cell lysates were harvested and processed as described in refs [14, 29, 31, 34]. […] Protein lysates were collected for Western blotting analysis. Blots were probed with antibodies according to each supplier's recommendations: antibodies to IGF-1R, total AKT, phosphor AKT (Ser473), total PRAS40, phospho-PRAS40 (Thr246), total ERK1/2, phospho-ERK1/2 (Thr202/Tyr 204), total CDK2, phospho-CDK2 (Thr160), p62, LC3B, total STAT, phospho-STAT3 (Tyr705), caspase 3 and cleaved PARP from Cell Signaling Technology (Danvers, MA); cyclin D1, α-enolase and secondary antibodies conjugated with horseradish peroxidase from Santa Cruz Biotechnology (Santa Cruz, CA). Immunoblots were developed using the enhanced chemiluminescence (ECL) detection system (Thermo Fisher Scientific, Rockford, IL).

UACC 903 melanoma cells = experiment: MTS cell viability assay, UACC 903 melanoma cells; assay type: cell-based, human; conditions: 72 hours treatment, read-out: Melanoma cell killing efficacy (IC50 values) UACC 903 (Melanoma cells)
Procedure: (§2) Dr. Craig Myers, Penn State College of Medicine, Hershey, PA provided normal human fibroblast cell line FF2441. Mutant V600E-BRAF human melanoma cell line 1205 Lu was provided by Dr. Herlyn; Wistar Institute, Philadelphia, PA and UACC 903 was provided by Dr. Mark Nelson; University of Arizona, Tucson, AZ. Cell lines were maintained in a 37°C humidified 5% CO2 atmosphere incubator and periodically monitored for phenotypic, genotypic characteristics, and tumorigenic potential to validate and confirm cell line identity.
(§3) In brief, 5 × 10^3 cells per well in 100 μL of media were seeded and grown in a 96-well plate for 48 to 72 hours and treated with either DMSO vehicle control or 0.62 to 100 μmol/L of compounds for 72 hours. IC50 values for each compound in μmol/L for respective cell lines were measured from three independent experiments using GraphPad Prism version 4.01 (GraphPad Software, La Jolla, CA). In addition, recovery and viability assessment was also measured with these compounds co-treated simultaneously with 10 nmol/L of bafilomycin A1 (BafA1) or 1 mMol/L β-cyclodextrin and the viability was measured using the MTS assay after 24 hours.

melanoma cells = experiment: Autophagic flux: Western blot of p62 and LC3B; assay type: cell-based, human; conditions: Western blotting, 24 hours
From the text: as §1

[2] = Dose escalation for oral administration of leelamine; assay type: in vivo; conditions: 80 mg/kg body weight (QOD) over 14 days, Swiss Webster mice
Procedure: To determine the effective oral dosage of leelamine, a dose escalation study was conducted in 4–6 week old Swiss Webster mice. […] Animals were weighed daily to ascertain potential toxic effects leading to changes in body weight. At the end of treatment, blood was collected from each sacrificed animal in a serum separator tube with lithium heparin (BD Microtainer) following cardiac puncture and levels of serum biomarkers of major organ toxicity were measured. In addition, vital organs including liver, spleen, kidney, intestine, lung and heart from control and experimental animals were collected on day 14, formalin fixed, paraffin-embedded, H&E stained and analyzed microscopically for changes in cellular morphology or tissue architecture.

[3] = system: normal human fibroblast cell line FF2441; experiment: MTS cell viability assay, normal fibroblasts; assay type: cell-based; conditions: 72 hours treatment, read-out: Melanoma cell killing efficacy (IC50 values) FF2441 (Normal Cells)
Procedure: as §2, §3

[4] = Pharmacokinetics of leelamine in the serum of mice; assay type: in vivo; conditions: 80 mg/kg oral, Swiss Webster mice
Procedure: Leelamine was extracted from serum as reported previously. Swiss Webster mice were treated orally with 80 mg/kg body weight of leelamine, animals were euthanized and blood drawn by cardiac puncture at various time periods over 36 hours. Samples were kept at room temperature for 30 minutes followed by serum separation by centrifugation for 5 minutes at 5,000 rpm. Next, 20 μL of the collected serum was added to 80 μL of acetonitrile along with 5 μL of propranolol (RS)-1-(1-methylethylamino)-3-(1-naphthyloxy)propan-2-ol), which served as an internal standard (transition of m/z 259.9 to 116.0). Solution was vortexed for 30 seconds and then centrifuged at 10,000 rpm for 10 minutes. Supernatant was transferred to the auto sampler vials and subject to liquid chromatography-mass spectrometry using LC-MS/MS 2010 EV system (Shimadzu, Tokyo, Japan).

[5] = Body weight and sub-chronic toxicity assessment (blood biomarkers) in tumor-bearing mice; assay type: in vivo; conditions: 80 mg/kg oral daily, 24 days of treatment
Procedure: 1 × 10^6 UACC 903 cells in 0.2 mL of DMEM supplemented with 10% FBS were subcutaneously injected above both left and right rib cages of 4–6 week old female athymic nu/nu mice. Six to eight days later, mice were randomly sorted into vehicle control 10% PEG (Poly ethylene glycol) and experimental compound 4a or leelamine groups, followed by daily oral administration of 80 mg/kg body weight. Volume of developing tumors in mm^3 was measured on alternate days using calipers along with assessment of body weights.
At the end of tumorigenicity assessment, blood was collected from each euthanized animal in a serum separator tube with lithium heparin (BD Microtainer), following cardiac puncture and analyzed for levels of ALT (Alanine aminotransferase), AST (Aspartate aminotransferase), ALKP (Alkaline phosphatase), ALB (Albumin), GLB (Globulin), TPR (Total Protein), TBIL (Total bilirubin), BUN (Blood urea nitrogen), GLU (Glucose), CK (Creatine kinase), CAL (Calcium).

1205 Lu melanoma cells = experiment: MTS cell viability assay, 1205 Lu melanoma cells; assay type: cell-based, human; conditions: 72 hours treatment, read-out: Melanoma cell killing efficacy (IC50 values) 1205 Lu (Melanoma cells)
Procedure: as §2, §3

UACC 903 cells = experiment: Endocytosis: Alexa Fluor 488 transferrin uptake; assay type: cell-based, human; conditions: UACC 903, 2 hours treatment
Procedure: The endocytotic capacity of the cells was measured as described in Kuzu et al. 2014 [14]. Briefly, UACC 903 cells were seeded into chamber slides and treated with the particular agents for 2 hours. Next, Alexa Flor 488 tagged transferrin protein was added at a final concentration of 5 μg/mL and incubated for 30 minutes. Cells were then fixed on the slide with 4% paraformaldehyde and analyzed by fluorescence microscopy as described previously. Measurement of compounds effects on lysosomotropism was assessed through the appearance of cellular vacuolization of UACC 903 cells growing at 70 to 80% confluency on 100 mm culture dishes compared to controls. For some experimental conditions cells were co-treated with 10 nmol/L of BafA1 for 3 hours. Light microscopic images were used to assess cellular vacuolization.

CC(C)c1ccc2c(c1)CCC1C(C)(CN)CCCC21C (centres unmarked) [Leelamine]
effect on PI3K/AKT, STAT3 and MAPK signaling pathways [1]: inhibited
IC50 (UACC 903 melanoma cells; Homo sapiens, UACC-903, 72 h): 1.35 ± 0.1 µM
autophagic flux (p62 and LC3B proteins) (melanoma cells): dose dependently induced accumulation of p62 and LC3B proteins
weight loss on repeated oral dosing [2]: did not cause any weight loss
IC50 [3]: 8.91 ± 0.6 µM
time present in the serum ([4]; followed over 36 hours): ≤ 24 h
Tmax ([4]; mouse, serum, LC-MS/MS, read-out: time of maximum concentration in serum): 6 h
body weights of mice [5]: No significant differences
IC50 (1205 Lu melanoma cells; Homo sapiens, 1205Lu, 72 h): 1.93 ± 0.2 µM

CC(C)c1ccc2c(c1)CCC1[C@](C)(CNCc3ccccc3)CCC[C@]21C (stereo partly drawn) [5e, N-benzyl-1-((1R, 4aS)-7-isopropyl-1,4a-dimethyl-1,2,3,4,4a, 9, 10, 10a-octahydrophenanthren-1-yl) methanamine]
IC50 (UACC 903 melanoma cells; Homo sapiens, UACC-903, 72 h): 6 µM
IC50 [3]: 3.13 ± 0.4 µM
IC50 (1205 Lu melanoma cells): 7.05 ± 0.7 µM
IC50 (1205 Lu melanoma cells; Homo sapiens, 1205Lu, 72 h): 7 µM

CC(C)c1ccc2c(c1)CCC1[C@](C)(CNC(=O)C(F)(F)F)CCC[C@]21C (stereo partly drawn) [5a, N-{[(1R, 4aS)-1,4a-dimethyl-7-(propan-2-yl)-1,2,3,4,4a, 9, 10, 10a-octahydrophenanthren-1-yl]methyl}-2,2,2-trifluoroacetamide]
effect on PI3K/AKT, STAT3 and MAPK signaling pathways [1]: inhibited
IC50 (UACC 903 melanoma cells; Homo sapiens, UACC-903, 72 h): 1.2 µM
autophagic flux (p62 and LC3B proteins) (melanoma cells): dose dependently induced accumulation of p62 and LC3B proteins
IC50 [3]: 5.17 ± 0.1 µM
IC50 (1205 Lu melanoma cells; Homo sapiens, 1205Lu, 72 h): 2 µM

CNC[C@]1(C)CCC[C@]2(C)C3CCC(C(C)C)=CC3=CCC12 (stereo partly drawn) [4b, {[(1R, 4aR)-1,4a-dimethyl-7-(propan-2-yl)-1,2,3,4,4a, 4b, 5,6,10,10a-decahydrophenanthren-1-yl]methyl}(methyl) amine]
IC50 (UACC 903 melanoma cells; Homo sapiens, UACC-903, 72 h): 2.3 µM
IC50 [3]: 9.33 ± 1.2 µM
IC50 (1205 Lu melanoma cells; Homo sapiens, 1205Lu, 72 h): 2.3 µM

CNC(=O)[C@]1(C)CCC[C@]2(C)C3CCC(C(C)C)=CC3=CCC21 (stereo partly drawn) [3b, (1R, 4aR)-N, 1,4a-trimethyl-7-(propan-2-yl)-1,2,3,4,4a, 4b, 5,6, 10, 10a-decahydrophenanthrene-1-carboxamide]
IC50 (UACC 903 melanoma cells; Homo sapiens, UACC-903, 72 h): > 100 µM
IC50 [3]: > 100 µM
IC50 (1205 Lu melanoma cells; Homo sapiens, 1205Lu, 72 h): > 100 µM

CC(C)c1ccc2c(c1)CCC1[C@](C)(CNC(=O)C(Br)(Br)Br)CCC[C@]21C (stereo partly drawn) [5b, N-{[(1R, 4aS)-1,4a-dimethyl-7-(propan-2-yl)-1,2,3,4,4a, 9, 10, 10a-octahydrophenanthren-1-yl]methyl}-2,2,2-tribromoacetamide]
IC50 (UACC 903 melanoma cells; Homo sapiens, UACC-903, 72 h): 1 µM
IC50 [3]: 4.1 ± 0.2 µM
IC50 (1205 Lu melanoma cells; Homo sapiens, 1205Lu, 72 h): 1.8 µM

CC(C)c1ccc2c(c1)CCC1[C@](C)(CNC(c3ccccc3)(c3ccccc3)c3ccccc3)CCC[C@]21C (stereo partly drawn) [5f, {[(1R, 4aS)-1,4a-dimetyl-7-(propan-2-yl)-1,2,3,4,4a, 9, 10, 10a-octahydrophenanthren-1-yl]methyl} (triphenylmethyl) amine]
IC50 (UACC 903 melanoma cells; Homo sapiens, UACC-903, 72 h): > 100 µM
IC50 [3]: > 100 µM
IC50 (1205 Lu melanoma cells; Homo sapiens, 1205Lu, 72 h): > 100 µM

CCN(CC)C(=O)[C@]1(C)CCC[C@]2(C)C3CCC(C(C)C)=CC3=CCC21 (stereo partly drawn) [3c, (1R, 4aR)-N, N-diethyl-1,4a-dimethyl-7-(propan-2-yl)-1,2,3,4,4a, 4b, 5,6, 10, 10a-decahydrophenanthrene-1-carboxamide]
IC50 (UACC 903 melanoma cells; Homo sapiens, UACC-903, 72 h): > 100 µM
IC50 [3]: > 100 µM
IC50 (1205 Lu melanoma cells; Homo sapiens, 1205Lu, 72 h): > 100 µM

[(1R, 4aR)-1,4a-dimethyl-7-(propan-2-yl)-1, 2, 3, 4, 4a, 4b, 5, 6, 7,10a-decahydrophenanthren-1-yl] methanol [2b]
IC50 (UACC 903 melanoma cells): 52.6 ± 1.4 µM
IC50 (1205 Lu melanoma cells): 60.3 ± 1.6 µM

CC(C)C1=CC2=CCC3[C@](C)(CCC[C@@]3(C)C(N)=O)C2CC1 (stereo partly drawn) [3a, (1R, 4aR)-7-isopropyl-1,4a-dimethyl-1,2,3,4,4a,4b,5,6,10,10a-decahydrophenanthrene-1-carboxamide]
IC50 (UACC 903 melanoma cells; Homo sapiens, UACC-903, 72 h): 70.1 ± 1.8 µM
IC50 [3]: > 100 µM
IC50 (1205 Lu melanoma cells; Homo sapiens, 1205Lu, 72 h): 81 ± 2.1 µM

CC(=O)NC[C@]1(C)CCC[C@]2(C)c3ccc(C(C)C)cc3CCC12 (stereo partly drawn) [5c, N-{[(1R, 4aS)-1,4a-dimethyl-7-(propan-2-yl)-1,2,3,4,4a, 9, 10, 10a-octahydrophenanthren-1-yl]methyl} acetamide]
effect on PI3K/AKT, STAT3 and MAPK signaling pathways [1]: did not affect these pathways
IC50 (UACC 903 melanoma cells; Homo sapiens, UACC-903, 72 h): 89.4 ± 3.3 µM
IC50 [3]: > 100 µM
IC50 (1205 Lu melanoma cells; Homo sapiens, 1205Lu, 72 h): > 100 µM

CC(C)C1=CC2=CC[C@@H]3[C@](C)(CCC[C@@]3(C)C(=O)O)[C@H]2CC1 [Abietic acid, reference compound]
cellular endocytosis (Alexa Fluor conjugated transferrin uptake) (UACC 903 cells): did not occur
effect on PI3K/AKT, STAT3 and MAPK signaling pathways [1]: did not affect these pathways
IC50 (UACC 903 melanoma cells; Homo sapiens, UACC-903, 72 h): > 100 µM
IC50 [3]: > 100 µM
IC50 (1205 Lu melanoma cells; Homo sapiens, 1205Lu, 72 h): > 100 µM

CCN(CC)C[C@]1(C)CCC[C@]2(C)C3CCC(C(C)C)=CC3=CCC12 (stereo partly drawn) [4c, N-ethyl-N-(((1R, 4aR)-7-isopropyl-1,4a-dimethyl-1,2,3,4,4a, 4b,5,6,10,10a-decahydrophenanthren-1-yl)methyl) ethanamine]
IC50 (UACC 903 melanoma cells; Homo sapiens, UACC-903, 72 h): 24.4 ± 1.4 µM
IC50 [3]: > 100 µM
IC50 (1205 Lu melanoma cells; Homo sapiens, 1205Lu, 72 h): 24.3 ± 2.5 µM

CC(C)c1ccc2c(c1)CCC1[C@](C)(CNC(=O)c3ccccc3)CCC[C@]21C (stereo partly drawn) [5d, N-(((1R, 4aS)-7-isopropyl-1,4a-dimethyl-1,2,3,4,4a, 9, 10, 10a-octahydrophenanthren-1-yl)methyl) benzamide]
IC50 (UACC 903 melanoma cells; Homo sapiens, UACC-903, 72 h): > 100 µM
IC50 [3]: > 100 µM
IC50 (1205 Lu melanoma cells; Homo sapiens, 1205Lu, 72 h): > 100 µM
